Measured values: patent US8889711B2, “Pyrazolopyridine derivatives as anticancer agent” (Pierre Fabre Medicament, priority 2009, dated 2014)

How the values were obtained:
karpas 299 cells = experiment: Measurement of inhibition of cell proliferation (Karpas), ATPlite; type: cell-based; details: Homo sapiens, KARPAS-299, 72 h
Summary of the method: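 Karpas 299 cells seeded at 300 000 cells/ml, treated on Day 1 and incubated at 37° C under 5% CO2 for 72 h. Viability measured on Day 4 by ATPlite luminescence of ATP from viable cells. IC50 derived by non-linear sigmoid dose-response regression with variable Hill slope.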

ALK kinase = ALK kinase (Homo sapiens, UniProt Q9UM73); experiment: Test to measure ALK kinase inhibition (GST-PLCγ1 substrate, anti-phosphotyrosine ELISA, luminescence); type: biochemical; details: ALK kinase 180 ng/ml, 250 μM ATP, 30 minutes at 30° C.
Summary of the method: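 GST-PLCγ1 substrate-coated plate; ALK at 180 ng/ml in Tris pH 7.5 buffer with MgCl2, DTT, β-glycerophosphate, orthovanadate and 250 μM ATP, 30 min at 30 °C, inhibitor typically 30 μM to 10 nM. Phosphotyrosine detected with HRP anti-phosphotyrosine antibody, luminescence read-out.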

Sequence of ALK kinase (Q9UM73 19-1620): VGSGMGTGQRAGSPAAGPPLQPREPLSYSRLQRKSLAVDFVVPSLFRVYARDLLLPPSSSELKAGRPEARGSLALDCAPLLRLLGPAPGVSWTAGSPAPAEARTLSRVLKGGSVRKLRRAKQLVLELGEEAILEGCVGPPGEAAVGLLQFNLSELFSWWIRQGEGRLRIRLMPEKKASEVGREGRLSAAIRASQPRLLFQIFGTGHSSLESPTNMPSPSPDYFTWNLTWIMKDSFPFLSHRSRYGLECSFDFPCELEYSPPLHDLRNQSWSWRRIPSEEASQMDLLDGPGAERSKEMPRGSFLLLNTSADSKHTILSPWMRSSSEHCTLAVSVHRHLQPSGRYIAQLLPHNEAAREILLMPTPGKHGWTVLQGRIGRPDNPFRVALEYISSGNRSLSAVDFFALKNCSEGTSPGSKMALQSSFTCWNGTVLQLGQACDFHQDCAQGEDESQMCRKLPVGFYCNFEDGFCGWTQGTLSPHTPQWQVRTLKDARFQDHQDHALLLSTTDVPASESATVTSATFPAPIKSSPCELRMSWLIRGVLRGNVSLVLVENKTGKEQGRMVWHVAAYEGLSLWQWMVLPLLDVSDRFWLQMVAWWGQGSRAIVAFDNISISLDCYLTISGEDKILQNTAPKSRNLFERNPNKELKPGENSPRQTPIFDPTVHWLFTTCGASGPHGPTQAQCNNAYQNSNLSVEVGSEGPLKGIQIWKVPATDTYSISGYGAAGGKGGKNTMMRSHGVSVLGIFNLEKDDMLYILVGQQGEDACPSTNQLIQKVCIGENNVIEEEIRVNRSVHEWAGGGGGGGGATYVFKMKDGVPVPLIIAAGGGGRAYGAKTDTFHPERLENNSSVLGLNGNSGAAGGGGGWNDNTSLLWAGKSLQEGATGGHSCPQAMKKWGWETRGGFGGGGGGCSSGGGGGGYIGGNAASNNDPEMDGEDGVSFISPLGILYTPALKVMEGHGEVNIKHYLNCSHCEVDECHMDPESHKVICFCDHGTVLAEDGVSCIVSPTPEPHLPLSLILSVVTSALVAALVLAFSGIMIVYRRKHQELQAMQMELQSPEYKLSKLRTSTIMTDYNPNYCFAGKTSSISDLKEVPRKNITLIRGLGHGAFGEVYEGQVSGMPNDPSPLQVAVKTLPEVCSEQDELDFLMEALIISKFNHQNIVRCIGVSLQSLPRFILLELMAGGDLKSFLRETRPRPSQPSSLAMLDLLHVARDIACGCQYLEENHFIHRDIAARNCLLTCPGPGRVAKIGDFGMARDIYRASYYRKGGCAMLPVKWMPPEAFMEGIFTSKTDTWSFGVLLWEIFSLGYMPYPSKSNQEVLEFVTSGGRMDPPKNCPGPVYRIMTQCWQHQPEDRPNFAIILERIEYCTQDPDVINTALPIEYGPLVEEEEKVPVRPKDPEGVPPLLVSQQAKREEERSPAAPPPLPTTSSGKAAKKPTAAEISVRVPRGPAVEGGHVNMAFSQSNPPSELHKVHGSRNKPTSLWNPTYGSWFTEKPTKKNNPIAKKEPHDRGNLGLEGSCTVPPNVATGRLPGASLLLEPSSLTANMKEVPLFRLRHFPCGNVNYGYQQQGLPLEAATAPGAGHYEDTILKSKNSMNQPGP

N#Cc1c(-c2ccoc2)nc2[nH]nc(-c3ccco3)c2c1-c1ccc(N2CCNCC2)cc1 [Compound 272]
IC50 (karpas 299 cells): 1000 to 10000 nM
IC50 (ALK kinase): 1000 to 10000 nM

Cc1n[nH]c2nc(-c3ccc(O)cc3)c(C#N)c(-c3ccc(-c4ccc(N)cc4)o3)c12 [Compound 273]
IC50 (karpas 299 cells): > 10000 nM
IC50 (ALK kinase): 100 to 1000 nM

CN(C)CC#Cc1ccc(-c2c(C#N)c(-c3ccc(O)cc3)nc3[nH]ncc23)o1 [Compound 274]
IC50 (karpas 299 cells): 1000 to 10000 nM
IC50 (ALK kinase): 1000 to 10000 nM

Cc1n[nH]c2nc(-c3ccc(O)cc3)c(C#N)c(-c3ccc(-c4ccc(S(N)(=O)=O)cc4)o3)c12 [Compound 275]
IC50 (karpas 299 cells): > 10000 nM
IC50 (ALK kinase): 100 to 1000 nM

N#Cc1c(-c2cscn2)nc2[nH]nc(-c3cccs3)c2c1-c1ccc(N2CCNCC2)cc1 [Compound 276]
IC50 (karpas 299 cells): 1000 to 10000 nM
IC50 (ALK kinase): > 10000 nM

Cc1n[nH]c2nc(-c3ccc(O)c(F)c3F)c(C#N)c(-c3ccc(N4CCNCC4)cc3)c12 [Compound 277]
IC50 (karpas 299 cells): > 10000 nM
IC50 (ALK kinase): 100 to 1000 nM

Cc1cc(-c2nc3[nH]nc(-c4cccs4)c3c(-c3ccc(N4CCNCC4)cc3)c2C#N)c(F)cc1O [Compound 278]
IC50 (karpas 299 cells): 100 to 1000 nM
IC50 (ALK kinase): < 100 nM

N#Cc1c(-c2cnn[nH]2)nc2[nH]nc(-c3cccs3)c2c1-c1ccc(N2CCNCC2)cc1 [Compound 279]
IC50 (karpas 299 cells): > 10000 nM
IC50 (ALK kinase): 1000 to 10000 nM

N#Cc1c(-c2cncs2)nc2[nH]nc(-c3cccs3)c2c1-c1ccc(N2CCNCC2)cc1 [Compound 280]
IC50 (karpas 299 cells): 1000 to 10000 nM
IC50 (ALK kinase): 1000 to 10000 nM

N#Cc1c(-c2cscn2)nc2[nH]nc(-c3ccc(N4CCOCC4)cc3)c2c1-c1ccc(N2CCNCC2)cc1 [Compound 281]
IC50 (karpas 299 cells): 1000 to 10000 nM
IC50 (ALK kinase): 1000 to 10000 nM

N#Cc1c(-c2ccnc(O)c2)nc2[nH]nc(-c3cccs3)c2c1-c1ccc(N2CCNCC2)cc1 [Compound 282]
IC50 (karpas 299 cells): > 10000 nM
IC50 (ALK kinase): 1000 to 10000 nM

Cc1cc(-c2nc3[nH]nc(-c4cccs4)c3c(-c3ccc(N4CCNCC4)cc3)c2C#N)cc(C)c1O [Compound 283]
IC50 (karpas 299 cells): 1000 to 10000 nM
IC50 (ALK kinase): 100 to 1000 nM

COC(=O)c1c(-c2ccc(O)cc2F)nc2[nH]nc(C)c2c1-c1ccc(N2CCNCC2)cc1 [Compound 284]
IC50 (karpas 299 cells): < 100 nM
IC50 (ALK kinase): < 100 nM

N#Cc1c(-c2cncs2)nc2[nH]nc(-c3ccco3)c2c1-c1ccc(N2CCNCC2)cc1 [Compound 285]
IC50 (karpas 299 cells): 1000 to 10000 nM
IC50 (ALK kinase): < 100 nM

Cc1cc(-c2nc3[nH]nc(C)c3c(-c3ccc(N4CCNCC4)cc3)c2C#N)c(F)cc1O [Compound 286]
IC50 (karpas 299 cells): 100 to 1000 nM
IC50 (ALK kinase): < 100 nM

N#Cc1c(-c2ccc(O)cc2F)nc2[nH]ncc2c1-c1ccc(-c2ccc(S(N)(=O)=O)cc2)o1 [Compound 287]
IC50 (karpas 299 cells): 1000 to 10000 nM
IC50 (ALK kinase): < 100 nM

COc1ccc(-c2nc3[nH]ncc3c(-c3ccc(C#CCN)o3)c2C#N)cc1 [Compound 288]
IC50 (karpas 299 cells): > 10000 nM
IC50 (ALK kinase): 1000 to 10000 nM

N#Cc1c(-c2ccc(O)cc2)nc2[nH]ncc2c1-c1ccc(CCCN)o1 [Compound 289]
IC50 (karpas 299 cells): 100 to 1000 nM
IC50 (ALK kinase): < 100 nM

N#Cc1c(-c2ccc(CCl)cc2)nc2[nH]nc(-c3ccc(C(F)(F)F)cc3)c2c1-c1ccc(N2CCNCC2)cc1 [Compound 290]
IC50 (karpas 299 cells): 1000 to 10000 nM
IC50 (ALK kinase): 1000 to 10000 nM

N#Cc1c(-c2ccc(CO)cc2)nc2[nH]nc(-c3ccc(C(F)(F)F)cc3)c2c1-c1ccc(N2CCNCC2)cc1 [Compound 291]
IC50 (karpas 299 cells): 1000 to 10000 nM
IC50 (ALK kinase): 1000 to 10000 nM

COC(=O)c1c(-c2ccc(O)c(C)c2)nc2[nH]nc(C)c2c1-c1ccc(N2CCNCC2)cc1 [Compound 293]
IC50 (karpas 299 cells): < 100 nM
IC50 (ALK kinase): < 100 nM

Cc1cc(-c2nc3[nH]nc(N)c3c(-c3ccc(N4CCNCC4)cc3)c2C#N)c(F)cc1O [Compound 294]
IC50 (karpas 299 cells): 100 to 1000 nM
IC50 (ALK kinase): < 100 nM

COC(=O)c1c(-c2ccc(O)cc2F)nc2[nH]nc(N)c2c1-c1ccc(N2CCNCC2)cc1 [Compound 295]
IC50 (karpas 299 cells): 100 to 1000 nM
IC50 (ALK kinase): < 100 nM

CC(C)(C)C(=O)Oc1ccc(-c2nc3[nH]nc(-c4cccs4)c3c(-c3ccc(N4CCNCC4)cc3)c2C#N)c(F)c1 [Compound 296]
IC50 (karpas 299 cells): 100 to 1000 nM
IC50 (ALK kinase): 100 to 1000 nM

N#Cc1c(-c2ccc(OC(=O)c3ccccc3)cc2F)nc2[nH]nc(-c3cccs3)c2c1-c1ccc(N2CCNCC2)cc1 [Compound 297]
IC50 (karpas 299 cells): 100 to 1000 nM
IC50 (ALK kinase): 100 to 1000 nM

CC(=O)Oc1ccc(-c2nc3[nH]nc(-c4cccs4)c3c(-c3ccc(N4CCNCC4)cc3)c2C#N)c(F)c1 [Compound 298]
IC50 (karpas 299 cells): > 10000 nM
IC50 (ALK kinase): 100 to 1000 nM

CN(C)CCN1CCN(c2ccc(-c3c(C#N)c(-c4ccc(O)cc4)nc4[nH]nc(-c5ccc(Cl)cc5)c34)c(F)c2)CC1 [Compound 299]
IC50 (karpas 299 cells): 1000 to 10000 nM
IC50 (ALK kinase): < 100 nM

COC(=O)c1c(-c2ccc(OC(=O)C(C)(C)C)cc2F)nc2[nH]nc(C)c2c1-c1ccc(N2CCNCC2)cc1 [Compound 300]
IC50 (karpas 299 cells): < 100 nM
IC50 (ALK kinase): < 100 nM

CC(C)(C)C(=O)Oc1ccc(-c2nc3[nH]nc(N)c3c(-c3ccc(N4CCNCC4)cc3)c2C#N)c(F)c1 [Compound 301]
IC50 (karpas 299 cells): > 10000 nM
IC50 (ALK kinase): 100 to 1000 nM
